Molecules are shown by their SMILES.

Assay [1] has as its system Haematobia irritans. Description: Membrane feeding assay, horn fly Haematobia irritans. Format: in vivo. The following applies: for effect on feeding on solutions containing ATP, in words: doses as in Table 10. On the procedure: Flies of both species were transferred 30 min before feeding experiments to feeding cages as used for mosquitoes at 24° C., 80% RH in an environmental cabinet. Teneral tsetse were fed at 2 to 4 days old during the photophase with between 7 and 13 flies per feeding cage, covered with a black cloth. Horn flies were tested at 1 and 2 days old in the photophase with between 6 and 21 flies per cage. Both fly species were fed using small Hemotek feeding reservoirs (29 mm diameter, 1 ml) equipped with a membrane as for mosquitoes. Horn flies were fed for 15 min with feeding reservoirs placed on the cage. For tsetse, cages were closed with black mosquito netting at the bottom to allow flies to feed through the membrane placed under the cage. Feeding time (1.5 to 6 min) for tsetse was adjusted as a function of age to achieve at least 30% feeding on the positive control included in each feeding experiment. The positive control for both fly species contained 150 mM NaCl, 8.9 mM NaHCO3 with 100 μM ATP added, hereafter termed fly feeding solution (FFS). The pH of the FFS was adjusted as for ticks. The effect of TMP on feeding by G. pallidipes was also tested at 16 μg TMP/cm^2 dissolved in 140 μl hexane and applied homogeneously to the membrane surface using a micropipette. Hexane was used to treat the membrane with TMP to avoid the test compound being dispersed by fly wing-fanning. Flies of both species were activated just prior to feeding on a treatment by exhalation into the cage. Tsetse that had fed were identified with swollen abdomens and counted at the end of a feeding experiment. Since it was difficult to ascertain by eye whether a horn fly had fed on a treatment, 10 μl/ml of blue food colorant (No. 4866908, Trawosa AG, St. Gallen, Switzerland) was added. This facilitated the detection of ingested liquid when the abdomen of flies, killed by freezing, was squashed onto filter paper. Only experiments in which the feeding rate by flies was >30% on the positive control were included in analyses.
(§1) Uptake of TFS containing PR antagonists, converted to mg/h for hard ticks and weight gains in mg/25 min for soft ticks, was compared to TFS uptake in the corresponding positive controls. […] For tsetse and horn flies the percentage flies that fed per antagonist treatment served as the criterion for inhibition of feeding. As horn fly sexes emerged within 24 h, both sexes were assumed to show the same degree of appetence. In tsetse, males emerged first so a gender-related appetence could not be excluded. No sex-related feeding differences in feeding were found for testse (GLM, P>0.05) so data for the sexes were pooled. Comparisons of percentage fed flies were made using a Bayesian GLM—the most appropriate model considering the zero-inflated distributions shown by the data sets. […] P-values were corrected using Holm's FWEC in multiple comparisons of data for each tick and fly species.

The test system of assay [2] is Ornithodorus moubata. As to the kind of experiment: Silicone membrane feeding of N3, N4 nymphs, Ornithodorus moubata. It counts as in vivo. The following applies: for effect on feeding, compound in solution containing ATP, in words: doses as in Table 9. The procedure:
O. moubata nymphs were fed for 25 min through a membrane (50-75 μm thick) as for hard ticks in glass feeding unit on TFS containing 1000 μM ATP as positive control in each feeding experiment. PR antagonists were added to the TFS as for hard ticks. One compound, TMP was applied onto the membrane in aqueous solution (8 μg TMP in 70 μl) in small drops using a micropipette. Individual nymphs were marked on the dorsum with nail varnish in distinguishable colours and weighed before and after the experiment.
as §1

Assay [3] concerns A. gambiae mouthpart ATP-sensitive receptor. Description: Electrophysiological response to 200 pM ATP with PR antagonist admixed. It counts as cell-based, Anopheles gambiae. The following applies: for ID95 in nM (±s.e.m.): increasing doses admixed to 200 pM ATP; for effect on EP response to ATP, in words: 200 pM ATP, suramin at 1 nM. On the procedure: The tip recording method was used to record action potentials (spikes) from sensory cells in sensilla on A. gambiae labellum lobes.
Sensilla were exposed to test compounds and PR antagonists for ca. 2-4 s and spikes were counted in the first 2 s of recordings. Up to 4 test compounds were tested on a sensillum to evaluate potential agonists, each presented at 200 pM. To study responses as a function of dose for agonists ATP, adenosine, AMP, AMP-CPP and ATP+adenosine, up to 7 recordings were made at increasing doses of agonist from the same sensillum. Unless otherwise stated, recordings were made throughout from 4 to 16 sensilla from individual 4-6-day-old females per dose of agonist, antagonist and metal ion modulator. For example, a response curve established over 6 doses of an antagonist using 8 sensilla per dose involved recording from a sensillum of 48 separate mosquitoes. A given dose of a PR antagonist or metal ion modulator was only presented once to a sensillum. Two-second recordings were imported as ASCII files into DataView software for analysis of spike amplitude. Differences in spike amplitude generated by stimulation of one 8v sensillum/female with 1 mM sucrose (n=294 spikes from 6 females) 200 pM adenosine (n=207 spikes from 7 females) and 200 pM ATP (n=192 spikes from 7 females) were compared by measuring the spike amplitude in mV between the highest point of depolarisation and the lowest point of hyperpolarisation.
Pairwise comparisons of A. gambiae electrophysiological (EP) responses to ATP and adenosine alone and combined with a given dose of PR antagonist, EP responses to ATP alone and combined with a given dose of a metal modulator, and EP responses to ATP prior to and after exposure of a sensillum to a given dose of a PR antagonist were made with a one-tailed Wilcoxon signed-rank test for data showing a non-normal distribution, with a paired Student's t-test for normally distributed data showing homogeneous variance and with a Welch's t-test for normally distributed data showing non-homogeneous variance. Effects on feeding of adding ATP, AMP-CPP, adenosine, ATP+adenosine, AMP and ADP-βS, CPT with ATP or adenosine, TMP with ATP+adenosine, TMP+CPT with ATP+adenosine to the FS for A. gambiae, and of adding PR antagonists with ATP to the FS for A. stephensi were compared using one-tailed Mann-Whitney U-test or Welch's t-test, depending on data distribution; Holm's FWEC was applied where treatment comparisons involved the same positive control. Percent feeding inhibition induced by PR antagonists in A. stephensi was calculated using Abbott's formula.
Dose-response models fitted to mosquito data were generated using the ‘drm’ command in the “drc” R package (version 2.5-12). Best fitting models (goodness of fit) and effects of dose of a compound were assessed using, respectively, ‘modelFit’ and ‘noEffect’ functions in the same R package. A 3-parameter logistic model (L3) was fitted to spike-counts recorded to increasing doses of adenosine, AMP, ATP and AMP-CPP. Spike numbers recorded in response to 200 pM ATP with increasing doses of PR antagonists added were analysed using a 4-parameter log-logistic model (LL.4) for A-317491 and spinorphin, using a 4-parameter Weibull model (W1.4) for PPADS, RB-2 and TMP, and using a 3-parameter log-logistic model (LL.3) for suramin. An L3 model was fitted to proportions of females feeding on increasing doses of ATP. Feeding rates on 20 μM ATP with increasing doses of a PR antagonist added were analysed using a 4-parameter log-logistic model (LL.4) with the median of the positive control (20 μM ATP) fixed as the upper asymptote. Response dynamics in 3-parameter models are related to the slope b, the upper asymptote, and inflexion point of the model e (the ED50 value), whereas 4 parameter models also include the lower asymptote parameter. […]

Setting [4] is: TFS + 100 μM, N3, N4, silicone membrane.

For `Cc1ccc(C(=O)Nc2ccc(S(=O)(=O)O)c3cc(S(=O)(=O)O)cc(S(=O)(=O)O)c23)cc1NC(=O)c1cccc(NC(=O)Nc2cccc(C(=O)Nc3cc(C(=O)Nc4ccc(S(=O)(=O)O)c5cc(S(=O)(=O)O)cc(S(=O)(=O)O)c45)ccc3C)c2)c1` [Suramin], the results for the “% Fed, Median” value in assay [1] (FFS + 50 μM) and in assay [1] (FFS + 100 μM) were 61.5% and 46.2%, respectively. Moreover, the “weight gain, Median (mg)” value in assay [2] (TFS + 500 μM, N3, N4, silicone membrane) worked out at 0 mg/25 min. Moreover, the “Mean no. of spikes per 2 s (±s.e.m.), ATP + antagonist” value (“Mean no. of spikes per 2 s” below) in assay [3] (antagonist 0.6 nM + 200 pM ATP) is given as 4.20 spikes per 2 s. For the same compound, in assay [3], the “ID95 in nM (±s.e.m.)” value worked out at 1.15 nM.

On to `O=C(O)c1cc(C(=O)O)c(C(=O)N(Cc2cccc(Oc3ccccc3)c2)[C@H]2CCCc3ccccc32)cc1C(=O)O` [A-317491, 5-[(3-phenoxyphenyl)methyl-[(1S)-1,2,3,4-tetrahydronaphthalen-1-yl]carbamoyl]benzene-1,2,4-tricarboxylic acid], for which the “% Fed, Median” value in assay [1] (FFS + 10 μM) was determined as 58.3%; in assay [1] (FFS + 100 μM) it was 41.5%. Further, the “effect on feeding on solutions containing ATP, in words” value in assay [1] is recorded as “inhibited feeding”. In addition, the “weight gain, Median (mg)” value is given as 0.1 mg/25 min in assay [2] (TFS + 1 μM, N3, N4, silicone membrane) and 0 mg/25 min in assay [2] (setting [4]). For the same compound, in assay [2], the “effect on feeding, compound in solution containing ATP, in words” value is given as “inhibited feeding”. Also, in assay [3], the “effect on EP response to ATP, in words” value is “inhibited”. Moreover, the “Mean no. of spikes per 2 s” value in assay [3] (antagonist 0.5 nM + 200 pM ATP) is on record as 7.5 spikes per 2 s.

Regarding `Cc1nc(C)c(C)nc1C` [TMP, 2,3,5,6-tetramethylpyrazine], the entries for the “% Fed, Median” value in assay [1] (FFS + 50 μM), in assay [1] (FFS + 100 μM) and in assay [1] (FFS + 500 μM) were 50%, 37.5% and 0%, respectively. Further, the “effect on feeding on solutions containing ATP, in words” value in assay [1] is given as “inhibited feeding”. Further, the “weight gain, Median (mg)” value is listed as 0 mg/25 min in assay [2] (8 μg/cm^2 on membrane over TFS, N3, N4) and 0.1 mg/25 min in assay [2] (setting [4]). In assay [2] (dose as in Table 9), the “effect on feeding, compound applied onto the feeding membrane, in words” value is given as “significantly inhibited feeding”. In addition, the “effect on feeding, compound in solution containing ATP, in words” value in assay [2] is “failed to inhibit feeding”. Besides, in assay [3], the “effect on EP response to ATP, in words” value is “inhibited”. In addition, in assay [3] (antagonist 10 nM + 200 pM ATP), the “Mean no. of spikes per 2 s” value is on record as 11.2 spikes per 2 s. The “ID95 in nM (±s.e.m.)” value in assay [3] turned out to be 27.50 nM.

These data come from US20250057791A1, “PROTECTION AGAINST ARTHROPOD PARASITES WITH PURINERGIC RECEPTOR (OPR) ANTAGONISTS” (priority 2021, published 2025).
